Reference: BigSolDB 2.1

O=C(Nc1c(Cl)cncc1Cl)c1ccc(OC(F)F)c(OCC2CC2)c1
solubility (mole fraction)
Conditions | 278.2 K | 283.2 K | 288.2 K | 293.2 K | 298.2 K | 303.2 K | 308.2 K | 313.2 K | 318.2 K | 323.2 K
in 2-butanone | 0.000102 | 0.00013 | 0.000165 | 0.000204 | 0.000264 | 0.000351 | 0.000448 | 0.000586 | 0.00081 | 0.00118
in 2-pentanone | 7.4e-05 | 9.8e-05 | 0.000114 | 0.00016 | 0.000219 | 0.000311 | 0.000402 | 0.000551 | 0.000756 | 0.00101
in DMF | 4e-06 | 6e-06 | 8e-06 | 1.3e-05 | 1.9e-05 | 3.1e-05 | 4.3e-05 | 6.1e-05 | 8.6e-05 | 0.000119
in DMSO | 3.3e-05 | 4.2e-05 | 6.3e-05 | 9e-05 | 0.000132 | 0.000171 | 0.000236 | 0.00033 | 0.000457 | 0.000629
in ethanol | 6.5e-05 | 8.8e-05 | 0.000106 | 0.00015 | 0.000208 | 0.000297 | 0.000387 | 0.000533 | 0.000734 | 0.000989
in n-butanol | 4.5e-05 | 6.2e-05 | 7.8e-05 | 0.000112 | 0.000156 | 0.000226 | 0.000296 | 0.000411 | 0.00057 | 0.000782
in n-propanol | 4.9e-05 | 7.6e-05 | 9.4e-05 | 0.000131 | 0.000175 | 0.000244 | 0.000328 | 0.000455 | 0.000625 | 0.000868

Cc1nnc(C(C)C)n1C1C[C@H]2CC[C@@H](C1)N2CC[C@H](NC(=O)C1CCC(F)(F)CC1)c1ccccc1 (stereo not given in full)
solubility (mole fraction)
Conditions | 278.2 K | 283.2 K | 288.2 K | 293.2 K | 298.2 K | 303.2 K | 308.2 K | 313.2 K | 318.2 K | 323.2 K
in 2-butanone | 0.000179 | 0.000262 | 0.000349 | 0.000491 | 0.000715 | 0.00102 | 0.00137 | 0.00193 | 0.00257 | 0.00351
in 2-pentanone | 0.000152 | 0.000224 | 0.000296 | 0.000418 | 0.000607 | 0.00087 | 0.00119 | 0.00168 | 0.00229 | 0.00316
in DMF | 3.5e-05 | 5.6e-05 | 7.6e-05 | 0.000112 | 0.000168 | 0.000244 | 0.000341 | 0.000507 | 0.000689 | 0.00101
in DMSO | 1.4e-05 | 2.4e-05 | 3.7e-05 | 5.6e-05 | 8.4e-05 | 0.000128 | 0.000173 | 0.000263 | 0.000358 | 0.00053
in ethanol | 0.000281 | 0.000404 | 0.00052 | 0.000716 | 0.00102 | 0.00144 | 0.00189 | 0.00263 | 0.00344 | 0.00461
in n-butanol | 0.0002 | 0.000293 | 0.000383 | 0.000533 | 0.000778 | 0.00112 | 0.0015 | 0.00212 | 0.00282 | 0.00387
in n-propanol | 0.00021 | 0.00031 | 0.00042 | 0.000609 | 0.00088 | 0.00124 | 0.00167 | 0.00235 | 0.00311 | 0.00421
in water | 6e-06 | 9e-06 | 1.2e-05 | 1.7e-05 | 2.5e-05 | 3.6e-05 | 4.8e-05 | 6.9e-05 | 9.2e-05 | 0.000129
